Experiment: molar heat capacity at constant pressure
Details: 101.33 kPa, Small (less than 1 g) adiabatic calorimetry

CCCCCCCC[n+]1ccn(C)c1.F[B-](F)(F)F [1-methyl-3-octylimidazolium tetrafluoroborate]
Details	molar heat capacity at constant pressure [J/K/mol]
148.21 K, Glass	270.7
149.81 K, Crystal	251.1
150 K, Crystal	251.3
150 K, Glass	273.5
150.08 K, Crystal	251.3
150.11 K, Glass	273.6
151.75 K, Crystal	253.4
152 K, Glass	276.6
152.02 K, Crystal	253.6
153.69 K, Crystal	255.7
153.91 K, Glass	279.6
153.96 K, Crystal	255.9
155.63 K, Crystal	258
155.81 K, Glass	282.6
155.9 K, Crystal	258.3
157.57 K, Crystal	260.3
157.72 K, Glass	285.4
157.84 K, Crystal	260.6
159.5 K, Crystal	262.7
159.62 K, Glass	288.5
159.77 K, Crystal	263
160 K, Crystal	263.2
160 K, Glass	289.3
161.44 K, Crystal	265.2
161.53 K, Glass	291.6
161.71 K, Crystal	265.3
162.37 K, Glass	293
163.37 K, Crystal	267.5
163.44 K, Glass	294.7
163.64 K, Crystal	267.7
164.32 K, Glass	296.1
165.31 K, Crystal	270
165.35 K, Glass	297.8
165.57 K, Crystal	270.2
166.17 K, Glass	299.2
167.24 K, Crystal	272.5
167.26 K, Glass	301.2
167.5 K, Crystal	272.7
168.01 K, Glass	302.3
169.16 K, Crystal	275
169.17 K, Glass	304.3
169.43 K, Crystal	275.2
169.85 K, Glass	305.4
170 K, Crystal	276
170 K, Glass	305.6
171.09 K, Crystal	277.5
171.09 K, Glass	307.7
171.36 K, Crystal	277.7
171.68 K, Glass	308.8
173 K, Glass	311.1
173.01 K, Crystal	280.1
173.28 K, Crystal	280.3
173.52 K, Glass	311.9
174.93 K, Crystal	282.6
174.93 K, Glass	314.5
175.2 K, Crystal	282.9
175.35 K, Glass	315.3
176.85 K, Crystal	285.4
176.85 K, Glass	318.4
177.12 K, Crystal	285.7
177.17 K, Glass	319.3
178.76 K, Crystal	288.3
178.77 K, Glass	322.6
179 K, Glass	322.9
179.03 K, Crystal	288.3
180 K, Crystal	290
180 K, Glass	325.4
180.67 K, Crystal	291.1
180.7 K, Glass	327.1
180.82 K, Glass	327.4
180.94 K, Crystal	291.4
182.58 K, Crystal	293.9
182.63 K, Glass	332.5
182.85 K, Crystal	294.2
184.43 K, Glass	338.1
184.48 K, Crystal	296.7
184.56 K, Glass	339
184.75 K, Crystal	297
186.22 K, Glass	345.5
186.38 K, Crystal	299.8
186.48 K, Glass	348
186.65 K, Crystal	299.8
187.99 K, Glass	355.9
188.27 K, Crystal	302.6
188.39 K, Glass	361.5
188.55 K, Crystal	302.6
189.72 K, Glass	373.1
190 K, Crystal	305
190 K, Glass	380.4
190.16 K, Crystal	305.4
190.27 K, Liquid	387.4
190.44 K, Crystal	305.4
191.35 K, Liquid	408.9
192.04 K, Crystal	308.3
192.05 K, Liquid	444.4
192.32 K, Crystal	308.5
192.85 K, Liquid	463.5
193.84 K, Liquid	466.1
193.92 K, Crystal	311.4
194.2 K, Crystal	311.6
194.36 K, Liquid	466.3
195.76 K, Liquid	466.6
195.8 K, Crystal	314.5
196.08 K, Crystal	314.7
197.67 K, Crystal	317.3
197.7 K, Liquid	465.8
197.95 K, Crystal	317.8
199.54 K, Crystal	320.7
199.64 K, Liquid	464.9
199.82 K, Crystal	320.9
200 K, Crystal	320
200 K, Liquid	464.9
201.46 K, Crystal	323.8
201.58 K, Liquid	464.7
201.81 K, Crystal	324.6
203.44 K, Crystal	327.4
203.53 K, Liquid	464.1
203.91 K, Crystal	328.6
205.42 K, Crystal	331.1
205.47 K, Liquid	463.8
206.02 K, Crystal	332.2
207.4 K, Crystal	334.5
207.42 K, Liquid	463.5
208.11 K, Crystal	335.9
209.36 K, Liquid	463.5
209.37 K, Crystal	338.1
210 K, Crystal	335
210 K, Liquid	463.4
210.2 K, Crystal	339.8
211.3 K, Liquid	463.2
211.34 K, Crystal	342.1
212.28 K, Crystal	344.3
213.25 K, Liquid	463.5
213.29 K, Crystal	346
214.36 K, Crystal	348
215.19 K, Liquid	463.2
215.24 K, Crystal	350
216.42 K, Crystal	352.2
217.13 K, Liquid	463.5
217.18 K, Crystal	355
218.47 K, Crystal	357.6
219.08 K, Liquid	463.8
219.11 K, Crystal	360.4
220 K, Crystal	349.9
220 K, Liquid	463.8
220.51 K, Crystal	362.9
221.02 K, Crystal	365.7
221.02 K, Liquid	463.8
222.53 K, Crystal	369.1
222.93 K, Crystal	371.1
222.96 K, Liquid	464.1
224.55 K, Crystal	375
224.82 K, Crystal	376.7
224.9 K, Liquid	464.7
226.56 K, Crystal	381
226.7 K, Crystal	382.4
226.85 K, Liquid	464.9
228.55 K, Crystal	387.4
228.58 K, Crystal	388.3
228.8 K, Liquid	465.8
230 K, Crystal	364.9
230 K, Liquid	465.8
230.44 K, Crystal	395.1
230.53 K, Crystal	394.5
230.75 K, Liquid	466.6
232.29 K, Crystal	402.4
232.49 K, Crystal	402.1
234.12 K, Crystal	411.7
234.44 K, Crystal	412
235.93 K, Crystal	423.8
236.36 K, Crystal	424.6
237.7 K, Crystal	441.5
238.24 K, Crystal	445.5
239.43 K, Crystal	472
240 K, Crystal	379.9
240 K, Liquid	468.9
240.06 K, Crystal	487.8
245.81 K, Crystal	388.6
245.81 K, Liquid	471
248.34 K, Liquid	472
249.07 K, Liquid	472.3
250 K, Liquid	472.6
250.32 K, Liquid	472.8
251 K, Liquid	473.1
252.27 K, Liquid	473.7
252.93 K, Liquid	473.9
254.22 K, Liquid	474.5
254.87 K, Liquid	474.8
256.17 K, Liquid	475.4
256.8 K, Liquid	475.6
258.12 K, Liquid	476.2
258.74 K, Liquid	476.5
260 K, Liquid	477.3
260.07 K, Liquid	477.3
260.67 K, Liquid	477.6
262.02 K, Liquid	478.2
262.61 K, Liquid	478.5
263.97 K, Liquid	479.3
264.54 K, Liquid	479.6
265.92 K, Liquid	480.1
266.48 K, Liquid	480.4
267.87 K, Liquid	481.3
268.42 K, Liquid	481.6
269.82 K, Liquid	482.1
270 K, Liquid	482.4
270.35 K, Liquid	482.4
271.77 K, Liquid	483.2
272.29 K, Liquid	483.5
273.73 K, Liquid	484.4
274.23 K, Liquid	484.7
275.68 K, Liquid	485.2
276.16 K, Liquid	485.5
277.63 K, Liquid	486.6
278.1 K, Liquid	486.6
279.58 K, Liquid	487.8
280 K, Liquid	487.7
281.53 K, Liquid	488.9
283.48 K, Liquid	489.7
285.44 K, Liquid	490.9
287.39 K, Liquid	492
289.34 K, Liquid	493.1
290 K, Liquid	493.2
291.29 K, Liquid	494.2
293.24 K, Liquid	495.4
295.19 K, Liquid	496.5
297.15 K, Liquid	497.3
298.15 K, Liquid	497.8
299.1 K, Liquid	498.5
300 K, Liquid	498.9
301.05 K, Liquid	499.6
303 K, Liquid	500.7
304.95 K, Liquid	502.1
306.9 K, Liquid	503
308.86 K, Liquid	504.4
310 K, Liquid	504.8
310.81 K, Liquid	505.2
312.76 K, Liquid	506.4
314.71 K, Liquid	507.5
316.67 K, Liquid	508.9
318.62 K, Liquid	510
320 K, Liquid	510.9
320.57 K, Liquid	511.1
322.53 K, Liquid	512.3
324.48 K, Liquid	513.4
326.44 K, Liquid	514.8
328.39 K, Liquid	515.9
330 K, Liquid	517.1
330.34 K, Liquid	517.1
332.3 K, Liquid	518.5
334.25 K, Liquid	519.9
336.21 K, Liquid	521
338.16 K, Liquid	522.4
340 K, Liquid	523.6
340.11 K, Liquid	523.8
342.07 K, Liquid	524.7
344.02 K, Liquid	526.4
345.98 K, Liquid	527.2
347.93 K, Liquid	528.9
349.89 K, Liquid	530.3
350 K, Liquid	530.3
351.85 K, Liquid	531.7
353.8 K, Liquid	533.1
355.76 K, Liquid	534.2
357.71 K, Liquid	535.7
359.66 K, Liquid	536.8
360 K, Liquid	537.1
361.61 K, Liquid	538.2
363.57 K, Liquid	539.3
365.52 K, Liquid	540.7
367.47 K, Liquid	542.4
370 K, Liquid	544.2

Source: the NIST ThermoML archive (doi:10.1016/j.tca.2015.01.022)
